Where two headings read alike, the source gives them in different places.
Key:
[1] = Safety evaluation, repeated intravenous infusion (HNSTD); assay type: in vivo; settings: monkey HNSTD expressed as eribulin amount
Experimental: Four groups were set up for this test, namely the vehicle control group and SMP-656 groups with different doses (5, 10, 15 mg/kg), with 10 animals in each group, including 5 females and 5 males. Monkeys in each group were intravenously infused (for 30 min) with SMP-656 at doses of 5, 10 and 15 mg/kg at a volume of 10 mL/kg, once every three weeks, for 3 administrations (total 9 weeks), followed by a 4-week recovery period.
During the test, detailed clinical observations, and body weight and food intake monitoring were performed once a week. Clinical pathology examinations (including: hematology, coagulation, serum biochemistry, and urine analysis) were performed on Day 7, Day 50 and Day 71 respectively. The observation of irritation at the administration site was conducted once a week during the administration period, 2-4 h after administration on the administration day, and once a week during the recovery period. For animals with symptoms, the observation frequency was increased to daily until the symptoms disappeared. All surviving animals underwent accompanying toxicokinetic testing on Day 1 and Day 22. At the end of the administration period and the end of the recovery period, all surviving animals were euthanized as planned, dissected and grossly observed, and tissues and organs were weighed or fixed and preserved for pathological examination.

[2] = highest non-severe toxic dose; from literature references 1 and 2; cited from earlier work
[3] = highest non-severe toxic dose; from literature references 1 and 2; cited from earlier work; remark: listed apart in the source

Compound	Equivalent to eribulin amount [1]	Monkey HNSTD (mg/kg) [2]	Monkey HNSTD (mg/kg) [3]
C=C1C[C@@H]2CC[C@@]34C[C@H]5O[C@H]6[C@@H](O3)[C@H]3O[C@H](CC[C@@H]3O[C@H]6[C@H]5O4)CC(=O)C[C@@H]3[C@@H](OC)[C@@H](C[C@H](O)CN)O[C@H]3C[C@H]3O[C@@H](CC[C@@H]1O2)C[C@@H](C)C3=C [Eribulin]	0.03 mg/kg	0.03^2 mg/kg	
MORAb-202: ADC with Eribulin as a small-molecule toxin, set DAR of 4	0.12 mg/kg		6^1 mg/kg

From patent publication EP4691498A1, “ANTIBODY-DRUG CONJUGATE, AND PREPARATION METHOD THEREFOR AND USE THEREOF” (Chengdu Scimount Pharmatech Co., Ltd., priority 2023, dated 2024)
